# Experimental data as given in patent US10376593B2, “Glycoconjugates and their use as potential vaccines against infection by Shigella flexneri” (INSTITUT PASTEUR, priority 2012, dated 2019).
# Target: mIgG A22-4′ (anti-S. flexneri serotype 6 LPS monoclonal antibody) binding to SF6 LPS
# Assay: Inhibition ELISA: binding of mIgG A22-4′ to synthetic oligosaccharides (inhibition of mIgG binding to SF6 LPS)
# Set-up: species or system mouse
# Settings: concentration of oligosaccharide required to inhibit 50% of mIgG A22-4′ (0.025 μg/ml) binding to purified SF6 LPS (strain Sc544); oligosaccharides tested as propyl glycoside; max 2.5 mM; ≤ = inferior to but close to the value
# Procedure: 2) ELISA for IC50 Measurements
# The binding of the available mIgG A22-4′ to the synthetic oligosaccharides was measured as previously described (Phalipon A. et al (J. Immunol. 176 1686 (2006)). Briefly, the mIgG concentration to be used was defined in the first step. To do so, a standard curve was established for mIgG A22-4′. The mIgG was incubated at different concentrations, overnight at 4° C., on microtiter plates coated with SF6 LPS purified from the strain SF6 Sc544 at a concentration of […] in a carbonate buffer (pH 9.6), then with PBS-BSA 1% for 30 min at 4° C. After washing with PBS-Tween 20 (0.05%), alkaline phosphatase conjugated anti-mouse IgG was added at a dilution of 1/5,000 (Sigma-Aldrich) for 1 h at 37° C. After washing with PBS-Tween 20 (0.05%), the substrate was added (12 mg of p-nitrophenyl phosphate in 1.2 mL of 1 M Tris-HCl buffer (pH 8.8) and 10.8 mL of 5 M NaCl). Once the color developed, the plate was read at 405 nm Dynatech MR400 microplate reader). A standard curve OD=f([Ab]) was fitted to the quadratic equation Y=aX2+bX+c, where Y is the OD and X is the Ab concentration. A correlation factor (r^2) of 0.99 was routinely obtained. The mIgG A22-4′ concentration to be used in the second step for measuring the IC50, which is defined as the concentration of oligosaccharides required to inhibit 50% of mIgG binding to LPS, was chosen as follows. It corresponds to the minimal concentration of mAb which gives the maximal OD on the standard curve.
# The maximum concentration tested was 2.5 mM for all oligosaccharides. Then, measurement of unbound mIgG was performed as described above using microtiter plates coated with purified SF6 LPS. The mAb concentration was deduced from the standard curve. A 100% unbound mIgG concentration was defined for the mAb incubated in the same conditions but without any oligosaccharide. […]
# The binding of mIgG A22-4′ to the synthetic and oligo- or polysaccharides was evaluated in inhibition ELISA (Table B)
row,Compound,IC50 [µM]
1,"CCCO[C@@H]1O[C@H](CO)[C@H](O)[C@H](O[C@@H]2O[C@H](C(=O)O)[C@H](O[C@@H]3O[C@@H](C)[C@H](O)[C@@H](O)[C@H]3O[C@@H]3O[C@@H](C)[C@H](O)[C@@H](OC(C)=O)[C@H]3O)[C@H](O)[C@H]2O)[C@H]1NC(C)=O [AcCDAB, Propyl 3-O-acetyl-α-L-rhamnopyranosyl-(1→2)-α-L-rhamnopyranosyl-(1→4)-β-D-galactopyranosyluronic acid-(1→3)-2-acetamido-2-deoxy-β-D-galactopyranoside]",36
2,"CCCO[C@@H]1O[C@@H](C)[C@H](O)[C@@H](OC(C)=O)[C@H]1O[C@@H]1O[C@H](CO)[C@H](O)[C@H](O[C@@H]2O[C@H](C(=O)O)[C@H](O[C@@H]3O[C@@H](C)[C@H](O)[C@@H](O)[C@H]3O[C@@H]3O[C@@H](C)[C@H](O)[C@@H](OC(C)=O)[C@H]3O)[C@H](O)[C@H]2O)[C@H]1NC(C)=O [AcCDABAcC, Propyl 3-O-acetyl-α-L-rhamnopyranosyl-(1→2)-α-L-rhamnopyranosyl-(1→4)-β-D-galactopyranosyluronic acid-(1→3)-2-acetamido-2-deoxy-β-D-galactopyranosyl-(1→2)-3-O-acetyl-α-L-rhamnopyranoside]",≤ 500
3,"CCCO[C@@H]1O[C@H](CO)[C@H](O)[C@H](O[C@@H]2O[C@H](C(=O)O)[C@H](O[C@@H]3O[C@@H](C)[C@H](O)[C@@H](O)[C@H]3O[C@@H]3O[C@@H](C)[C@H](O)[C@@H](O)[C@H]3O)[C@H](O)[C@H]2O)[C@H]1NC(C)=O [CDAB, Propyl α-L-rhamnopyranosyl-(1→2)-α-L-rhamnopyranosyl-(1→4)-β-D-galactopyranosyluronic acid-(1→3)-2-acetamido-2-deoxy-β-D-galactopyranoside]",16
